In assay [1] the test system is cultured human mast cells (CHMC). Nature of the assay: CHMC low cell density ionomycin activation: tryptase assay. Conditions: low cell density CHMC, tryptase readout, 3 pt, read-out: LD Tryptase, CHMC, Iono, 3 pt. Format: cell-based.
Assay [2] shares this test system. Nature of the assay: CHMC low cell density IgE activation: tryptase assay. Format: cell-based. Particulars: low cell density CHMC, IgE activation, tryptase readout. The method in brief: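 CHMC at 1000–1500 cells/well were preincubated 1 hr at 37° C., stimulated with anti-IgE for 30 minutes at 37° C., then pelleted. Supernatant tryptase was measured with a fluorogenic substrate after 30 min at room temperature, against un-stimulated control wells.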

Setting [3] is: Homo sapiens, Mast cell, 3 pt, read-out: LD Tryptase, CHMC, IgE, 3 pt.
Setting [4] is: Homo sapiens, Mast cell, 8 pt, read-out: LD Tryptase, CHMC, IgE, 8 pt.
Where [5] appears, read: 3 pt, read-out: LD Tryptase, CHMC, IgE, 3 pt.

Molecules are shown by their SMILES.

Regarding `Cc1cc(C)cc(Nc2ncc(F)c(NC3CCC3)n2)c1` [Compound 1087, N4-Cyclobutyl-N2-(3,5-dimethylphenyl)-5-fluoro-2,4-pyrimidinediamine], the IC50 in assay [1] (Homo sapiens, Mast cell) is greater than 10 µM; in assay [2] (setting [3]), less than 10 µM; in assay [2] (setting [4]) it was less than 10 µM.

In the case of `COc1cc(Nc2ncc(F)c(NC3CCC3)n2)cc(OC)c1` [Compound 1088, N4-Cyclobutyl-N2-(3,5-dimethoxyphenyl)-5-fluoro-2,4-pyrimidinediamine], the IC50 is greater than 10 µM in assay [1] (Homo sapiens, Mast cell); less than 10 µM in assay [2] (setting [3]); less than 10 µM in assay [2] (setting [4]).

With `COc1cc(Nc2ncc(F)c(NC3CCC3)n2)cc(C(F)(F)F)c1` [Compound 1089, N4-Cyclobutyl-5-fluoro-N2-(3-methoxy-5-trifluoromethylphenyl)-2,4-pyrimidinediamine], the IC50 in assay [1] (Homo sapiens, Mast cell) was greater than 10 µM; in assay [2] (setting [3]), less than 10 µM; in assay [2] (setting [4]), less than 10 µM.

Turning to `CC(C)(C)c1cc(Nc2nc(Nc3cccc(N4CCOCC4)c3)ncc2F)n[nH]1` [Compound 1090], the IC50 in assay [1] (Homo sapiens, Mast cell) was greater than 10 µM; in assay [2] (setting [3]) it was less than 10 µM; in assay [2] (setting [4]), less than 10 µM.

Take `CC(=O)N1CCN(c2cccc(Nc3ncc(F)c(Nc4cc(C(C)(C)C)[nH]n4)n3)c2)CC1` [Compound 1091, N2-[3-(4-Acetylpiperazino)phenyl]-N4-(5-tert-butyl-1H-pyrazol-3-yl)-5-fluoro-2,4-pyrimidinediamine]: the IC50 was greater than 10 µM in assay [1] (Homo sapiens, Mast cell); less than 10 µM in assay [2] (setting [3]); less than 10 µM in assay [2] (setting [4]).

Take `C[C@@H]1Oc2ccc(Nc3nc(Nc4cc(C(C)(C)C)[nH]n4)ncc3F)nc2NC1=O` [Compound 1092, (S)-N2-(5-tert-Butyl-1H-pyrazol-3-yl)-5-fluoro-N4-(2-methyl-3-oxo-2H,4H-5-pyrid[1,4]oxazin-6-yl)-2,4-pyrimidinediamine]: the IC50 in assay [1] was greater than 10 µM; in assay [2] (setting [5]) it was less than 10 µM; in assay [2] (8 pt, read-out: LD Tryptase, CHMC, IgE, 8 pt), less than 10 µM.

On to `COc1ccc(Nc2ncc(F)c(Nc3cccc(NC4=NCCN4)c3)n2)cc1F` [Compound 1094, 5-Fluoro-N2-(3-fluoro-4-methoxyphenyl)-N4-[3-(N-2-imidazolin-2-yl)aminophenyl]-2,4-pyrimidinediamine], for which the IC50 in assay [1] (Homo sapiens, Mast cell) was greater than 10 µM; in assay [2] (setting [3]) it was less than 10 µM.

Turning to `Cc1cc(C)cc(Nc2ncc(F)c(Nc3cccc(NC4=NCCN4)c3)n2)c1` [Compound 1095, N2-(3,5-Dimethylphenyl)-5-fluoro-N4-[3-(N-2-imidazolin-2-yl)aminophenyl]-2,4-pyrimidinediamine], the IC50 is greater than 10 µM in assay [1] (Homo sapiens, Mast cell) and less than 10 µM in assay [2] (setting [3]).

Consider `COc1cc(Nc2ncc(F)c(Nc3cccc(NC4=NCCN4)c3)n2)cc(OC)c1` [Compound 1096, N2-(3,5-Dimethoxyphenyl)-5-fluoro-N4-[3-(N-2-imidazolin-2-yl)aminophenyl]-2,4-pyrimidinediamine], for which the IC50 is greater than 10 µM in assay [1] (Homo sapiens, Mast cell); less than 10 µM in assay [2] (setting [3]); greater than 10 µM in assay [2] (setting [4]).

Turning to `Fc1cnc(Nc2cccc(N3CCOCC3)c2)nc1Nc1cccc(NC2=NCCN2)c1` [Compound 1097, 5-Fluoro-N4-[3-(N-2-imidazolin-2-yl)aminophenyl]-N2-(3-morpholinophenyl)-2,4-pyrimidinediamine], the IC50 was greater than 10 µM in assay [1] (Homo sapiens, Mast cell) and greater than 10 µM in assay [2] (setting [3]).

On to `CCOC(=O)N1CCN(c2cccc(Nc3ncc(F)c(Nc4cccc(NC5=NCCN5)c4)n3)c2)CC1` [Compound 1098, N2-[3-(4-Ethoxycarbonylpiperazino)phenyl]-5-fluoro-N4-[3-(N-2-imidazolin-2-yl)aminophenyl]-2,4-pyrimidinediamine], for which the IC50 in assay [1] (Homo sapiens, Mast cell) was greater than 10 µM; in assay [2] (setting [3]), greater than 10 µM.

`CN1CCN(c2ccc(Nc3ncc(F)c(Nc4cccc(NC5=NCCN5)c4)n3)cc2)CC1` [Compound 1099, 5-Fluoro-N4-[3-(N-2-imidazolin-2-yl)aminophenyl]-N2-[4-(4-methylpiperazino)phenyl]-2,4-pyrimidinediamine]: the IC50 in assay [1] (Homo sapiens, Mast cell) is greater than 10 µM; in assay [2] (setting [3]), greater than 10 µM.

As for `COC(=O)N1CCN(c2ccc(Nc3ncc(F)c(Nc4cccc(NC5=NCCN5)c4)n3)cc2)CC1` [Compound 1100, 5-Fluoro-N4-[3-(N-2-imidazolin-2-yl)aminophenyl]-N2-[4-(4-methoxycarbonylpiperazino)phenyl]-2,4-pyrimidinediamine], the IC50 in assay [1] (Homo sapiens, Mast cell) was greater than 10 µM; in assay [2] (setting [3]), greater than 10 µM.

As for `CCOC(=O)N1CCN(c2cccc(Nc3ncc(F)c(Nc4cc(C(C)(C)C)[nH]n4)n3)c2)CC1` [Compound 1101, N4-(5-tert-Butyl-1H-pyrazol-3-yl)-N2-[3-(4-ethoxycarbonylpiperazino)phenyl]-5-fluoro-2,4-pyrimidinediamine], the IC50 in assay [1] (Homo sapiens, Mast cell) was greater than 10 µM; in assay [2] (setting [3]), less than 10 µM.

On to `CC(=O)N1CCN(c2ccc(Nc3ncc(F)c(Nc4cc(C(C)(C)C)[nH]n4)n3)cc2)CC1` [Compound 1102], for which the IC50 in assay [1] (Homo sapiens, Mast cell) is greater than 10 µM; in assay [2] (setting [3]), less than 10 µM; in assay [2] (setting [4]) it was less than 10 µM.

For the compound `COC(=O)N1CCN(c2ccc(Nc3ncc(F)c(Nc4cc(C(C)(C)C)[nH]n4)n3)cc2)CC1` [Compound 1103], the IC50 in assay [1] (Homo sapiens, Mast cell) was greater than 10 µM; in assay [2] (setting [3]), less than 10 µM; in assay [2] (setting [4]), less than 10 µM.

With `CN1CCN(c2ccc(Nc3ncc(F)c(Nc4cc(C(C)(C)C)[nH]n4)n3)cc2)CC1` [Compound 1104], the IC50 in assay [1] (Homo sapiens, Mast cell) was greater than 10 µM; in assay [2] (setting [3]) it was less than 10 µM; in assay [2] (setting [4]) it was less than 10 µM.

For `CC(=O)N1CCN(c2ccc(Nc3ncc(F)c(Nc4cccc(NC5=NCCN5)c4)n3)cc2)CC1` [Compound 1105, N2-[4-(4-Acetylpiperazino)phenyl]-5-fluoro-N4-[3-(N-2-imidazolin-2-yl)aminophenyl]-2,4-pyrimidinediamine], the IC50 in assay [1] (Homo sapiens, Mast cell) was greater than 10 µM; in assay [2] (setting [3]), greater than 10 µM.

`CC(=O)N1CCN(c2cccc(Nc3ncc(F)c(Nc4cccc(NC5=NCCN5)c4)n3)c2)CC1` [Compound 1106]: the IC50 is greater than 10 µM in assay [1] (Homo sapiens, Mast cell) and greater than 10 µM in assay [2] (setting [3]).

Turning to `CCOC(=O)c1cc2cccc(Nc3ncc(F)c(NC4CCC4)n3)c2[nH]1` [Compound 1107, N4-Cyclobutyl-N2-[2-(ethoxycarbonyl)indol-7-yl]-5-fluoro-2,4-pyrimidinediamine], the IC50 is less than 10 µM in assay [1] (Homo sapiens, Mast cell) and less than 10 µM in assay [2] (setting [3]).

As to `Fc1cnc(Nc2cccc(N3CCOCC3)c2)nc1NC1CCC1` [Compound 1108, N4-Cyclobutyl-5-fluoro-N2-(3-morpholinophenyl)-2,4-pyrimidinediamine], the IC50 in assay [1] (Homo sapiens, Mast cell) was greater than 10 µM; in assay [2] (setting [3]) it was less than 10 µM; in assay [2] (setting [4]) it was less than 10 µM.

As for `CCOC(=O)N1CCN(c2cccc(Nc3ncc(F)c(NC4CCC4)n3)c2)CC1` [Compound 1109, N4-Cyclobutyl-N2-[3-(4-ethoxycarbonylpiperazino)pheny]-5-fluoro-2,4-pyrimidinediamine], the IC50 in assay [1] was greater than 10 µM; in assay [2] (setting [5]), less than 10 µM.

For the compound `CN1CCN(c2ccc(Nc3ncc(F)c(NC4CCC4)n3)cc2)CC1` [Compound 1110, N4-Cyclobutyl-5-fluoro-N2-[4-(4-methylpiperazino)phenyl]-2,4-pyrimidinediamine], the IC50 in assay [1] (Homo sapiens, Mast cell) was greater than 10 µM; in assay [2] (setting [3]), less than 10 µM.

The values are drawn from patent US20220073536A1 (Rigel Pharmaceuticals, Inc., priority 2003, published 2022).
